Reference: the supplement of paper PMC10307832

Tests used:
Assay in all cases: relative viability (nuclei count vs DMSO), 5 days (fraction); higher = more cells survive
[1] = test system: PC-3 [JPC-3]
In short: (§1)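 Relative viability is defined as nuclei in treated wells over nuclei in vehicle wells. Duplicate plates were run and medians reported. Lung cancer cell lines in 1536-well plates were dosed by pin tool one day after seeding, with one drug or with a fixed anchor-drug dose plus five library-drug doses (not always all listed) in √10 steps, and nuclei were counted after 5 days.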

[2] = test system: NCI-H2342
In short: as §1

[3] = test system: NCI-H647
In short: as §1

[4] = test system: NCI-H1666
In short: as §1

[5] = test system: NCI-H2085
In short: as §1

[6] = test system: NCI-H2170
In short: as §1

[7] = test system: COR-L 105
In short: as §1

[8] = test system: SW 1573
In short: as §1

[9] = test system: LOU-NH91
In short: as §1

[10] = test system: NCI-H650
In short: as §1

[11] = test system: 201T
In short: as §1

[12] = test system: EKVX
In short: as §1

[13] = test system: BEN
In short: as §1

[14] = test system: HCC-827
In short: as §1

[15] = test system: NCI-H1975
In short: as §1

[16] = test system: NCI-H1437
In short: as §1

[17] = test system: NCI-H2087
In short: as §1

[18] = test system: LU99A
In short: as §1

[19] = test system: H3255
In short: as §1

[20] = test system: LCLC-97TM1
In short: as §1

[21] = test system: EPLC-272H
In short: as §1

## Cc1sc2c(c1C)C(c1ccc(Cl)cc1)=N[C@@H](CC(=O)OC(C)(C)C)c1nnc(C)n1-2 [JQ1] + COc1cc2c(Oc3ccc(NC(=O)C4(C(=O)Nc5ccc(F)cc5)CC4)cc3F)ccnc2cc1OCCCN1CCOCC1 [Foretinib] (partner 0.25 µM)
[1]; first compound 0.04 µM
  relative viability: 1.06
[1]; first compound 0.1265 µM
  relative viability: 1.05
[1]; first compound 0.4 µM
  relative viability: 0.75
[1]; first compound 1.265 µM
  relative viability: 0.74
[1]; first compound 4 µM
  relative viability: 0.48
[2]; first compound 0.04 µM
  relative viability: 1.09
[2]; first compound 0.1265 µM
  relative viability: 0.843
[2]; first compound 0.4 µM
  relative viability: 1.08
[2]; first compound 1.265 µM
  relative viability: 0.91
[2]; first compound 4 µM
  relative viability: 0.824
[3]; first compound 0.04 µM
  relative viability: 1.21
[3]; first compound 0.1265 µM
  relative viability: 0.914
[3]; first compound 0.4 µM
  relative viability: 0.841
[3]; first compound 1.265 µM
  relative viability: 0.242
[3]; first compound 4 µM
  relative viability: 0.204
[4]; first compound 0.04 µM
  relative viability: 0.855
[4]; first compound 0.1265 µM
  relative viability: 0.924
[4]; first compound 0.4 µM
  relative viability: 0.818
[4]; first compound 1.265 µM
  relative viability: 0.634
[4]; first compound 4 µM
  relative viability: 0.653
[5]; first compound 0.04 µM
  relative viability: 0.855
[5]; first compound 0.1265 µM
  relative viability: 0.821
[5]; first compound 0.4 µM
  relative viability: 0.578
[5]; first compound 1.265 µM
  relative viability: 0.428
[5]; first compound 4 µM
  relative viability: 0.37
[6]; first compound 0.04 µM
  relative viability: 1.03
[6]; first compound 0.1265 µM
  relative viability: 0.928
[6]; first compound 0.4 µM
  relative viability: 0.837
[6]; first compound 1.265 µM
  relative viability: 0.762
[6]; first compound 4 µM
  relative viability: 0.626
[7]; first compound 0.04 µM
  relative viability: 0.794
[7]; first compound 0.1265 µM
  relative viability: 0.604
[7]; first compound 0.4 µM
  relative viability: 0.656
[7]; first compound 1.265 µM
  relative viability: 0.219
[7]; first compound 4 µM
  relative viability: 0.272
[8]; first compound 0.04 µM
  relative viability: 0.907
[8]; first compound 0.1265 µM
  relative viability: 0.837
[8]; first compound 0.4 µM
  relative viability: 0.777
[8]; first compound 1.265 µM
  relative viability: 0.439
[8]; first compound 4 µM
  relative viability: 0.384
[9]; first compound 0.04 µM
  relative viability: 0.944
[9]; first compound 0.1265 µM
  relative viability: 0.777
[9]; first compound 0.4 µM
  relative viability: 0.618
[9]; first compound 1.265 µM
  relative viability: 0.625
[9]; first compound 4 µM
  relative viability: 0.482
[10]; first compound 0.04 µM
  relative viability: 0.996
[10]; first compound 0.1265 µM
  relative viability: 0.717
[10]; first compound 0.4 µM
  relative viability: 0.687
[10]; first compound 1.265 µM
  relative viability: 0.385
[10]; first compound 4 µM
  relative viability: 0.294
[11]; first compound 0.04 µM
  relative viability: 1.02
[11]; first compound 0.1265 µM
  relative viability: 0.704
[11]; first compound 0.4 µM
  relative viability: 0.514
[11]; first compound 1.265 µM
  relative viability: 0.343
[11]; first compound 4 µM
  relative viability: 0.215
[12]; first compound 0.04 µM
  relative viability: 0.881
[12]; first compound 0.1265 µM
  relative viability: 0.448
[12]; first compound 0.4 µM
  relative viability: 0.787
[12]; first compound 1.265 µM
  relative viability: 0.655
[12]; first compound 4 µM
  relative viability: 0.512
[13]; first compound 0.04 µM
  relative viability: 0.482
[13]; first compound 0.1265 µM
  relative viability: 0.529
[13]; first compound 0.4 µM
  relative viability: 0.495
[13]; first compound 1.265 µM
  relative viability: 0.327
[13]; first compound 4 µM
  relative viability: 0.262
[14]; first compound 0.04 µM
  relative viability: 1.1
[14]; first compound 0.4 µM
  relative viability: 1.14
[14]; first compound 1.265 µM
  relative viability: 1.22
[14]; first compound 4 µM
  relative viability: 0.907
[15]; first compound 0.04 µM
  relative viability: 0.916
[15]; first compound 0.1265 µM
  relative viability: 0.731
[15]; first compound 0.4 µM
  relative viability: 0.713
[15]; first compound 1.265 µM
  relative viability: 0.541
[15]; first compound 4 µM
  relative viability: 0.353
[16]; first compound 0.04 µM
  relative viability: 1.11
[16]; first compound 0.1265 µM
  relative viability: 1.23
[16]; first compound 0.4 µM
  relative viability: 1.03
[16]; first compound 1.265 µM
  relative viability: 0.464
[16]; first compound 4 µM
  relative viability: 0.384
[17]; first compound 0.04 µM
  relative viability: 1.06
[17]; first compound 0.1265 µM
  relative viability: 0.997
[17]; first compound 0.4 µM
  relative viability: 0.766
[17]; first compound 1.265 µM
  relative viability: 0.518
[17]; first compound 4 µM
  relative viability: 0.479
[18]; first compound 0.04 µM
  relative viability: 0.821
[18]; first compound 0.1265 µM
  relative viability: 0.85
[18]; first compound 0.4 µM
  relative viability: 0.559
[18]; first compound 1.265 µM
  relative viability: 0.374
[18]; first compound 4 µM
  relative viability: 0.304
[19]; first compound 0.04 µM
  relative viability: 0.78
[19]; first compound 0.1265 µM
  relative viability: 0.884
[19]; first compound 0.4 µM
  relative viability: 0.987
[19]; first compound 1.265 µM
  relative viability: 0.793
[19]; first compound 4 µM
  relative viability: 0.442
[20]; first compound 0.04 µM
  relative viability: 0.909
[20]; first compound 0.1265 µM
  relative viability: 0.949
[20]; first compound 0.4 µM
  relative viability: 0.823
[20]; first compound 1.265 µM
  relative viability: 0.617
[20]; first compound 4 µM
  relative viability: 0.4
[21]; first compound 0.04 µM
  relative viability: 0.639
[21]; first compound 0.1265 µM
  relative viability: 0.508
[21]; first compound 0.4 µM
  relative viability: 0.454
[21]; first compound 1.265 µM
  relative viability: 0.247
[21]; first compound 4 µM
  relative viability: 0.191
